Measurements as given in US12486253B2, “Therapeutics for the degradation of mutant BRAF” (C4 THERAPEUTICS, INC., priority 2021, dated 2025).
“Also recorded” adds a separate entry of the source.

Legend:
phospho-ERK (T202/Y204) [1] = assay: HTRF phospho-ERK (T202/Y204) assay in A375-NRAS^Q61K cells; assay type: cell-based; conditions: 24 hrs, mean of at least n = 3, read-out: pERK IC50
Excerpt: (§1) A375-NRAS^Q61K cells (harboring BRAF homozygous V600E mutation and NRAS homozygous Q61K mutation) were purchased from ATCC. DMEM Medium without phenol red and supplemented with L-glutamine was purchased from Corning (Corning, NY, USA). Advanced phospho-ERK (Thr202/Tyr204) HTRF assay kits were purchased from Cisbio (Bedford, MA, USA). Cell culture flasks and 384-well microplates were acquired from VWR (Radnor, PA, USA) or Corning (Corning, NY, USA).
(§2) Degradation of activated phospho-ERK (T202/Y204) protein was determined based on quantification of FRET signal using the Advanced phospho-ERK (T202/Y204) HTRF assay kit. Test compounds were added to the 384-well plate from a top concentration of 10 μM with 11 points, half log titration in duplicates. A375-NRAS^Q61K cells were added into 384-well plates at a cell density of 2000 cells per well. The plates were kept at 37° C. with 5% CO2 for 24 hours. Cells treated in the absence of the test compound were the negative control. Positive control was set by wells containing all reagents but no cells. FRET signal was acquired on EnVision™ Multilabel Reader (PerkinElmer, Santa Clara, CA, USA).

A375-NRAS^Q61K cells = assay: CellTiter-Glo growth inhibition assay, A375-NRAS^Q61K cells; assay type: cell-based; conditions: 96 hr, mean of at least n = 3
Method: as §1, with “(without” for “without”, “L-glutamine)” for “L-glutamine”, “CellTiter-Glo® 2.0 Assay was” for “Advanced phospho-ERK (Thr202/Tyr204) HTRF assay kits were”, “Promega (Madison, WI,” for “Cisbio (Bedford, MA,”
(§3) A375-NRAS^Q61K cell viability was determined based on quantification of ATP using CellTiter-Glo® 2.0 luminescent Assay kit, which signals the presence of metabolically-active cells. Briefly, test compound was added to 384-well plates at a top concentration of 10 μM with 14 points, half log titration in duplicates. A375-NRAS^Q61K cells were seeded into the 384-well plates in DMEM medium containing 10% FBS at a cell density of 250 cells per well. Cells treated in the absence of the test compound were the negative control, normalized to 100% viability, and cells treated in the absence of CellTiter-Glo® 2.0 were the positive control, normalized to 0% viability. A375 cells were incubated at 37° C. with 5% CO2 for 96 hr. CellTiter-Glo reagent was then added to the cells and Luminescence was acquired on EnVision™ Multilabel Reader (PerkinElmer, Santa Clara, CA, USA).

[2] = test system: H1666 cells endogenously expressing the class III BRAF mutation G466V; assay: Cellular growth over time in H1666 cells; assay type: cell-based; conditions: G466V
A375 cells [3] = assay: CellTiter-Glo cell growth inhibition, A375 cells; assay type: cell-based; conditions: Homo sapiens, A-375, 72 hr, mean of at least n = 3
Method: as §3, with “A375” for “A375-NRAS^Q61K”, “72” for “96”

[4] = target: BRAF V600E, test compound and CRBN ternary complex (Homo sapiens, UniProt P15056+Q96SW2, V600E); assay: AlphaLISA ternary complex formation assay; assay type: binding; conditions: GST-BRAF V600E 16 nM, His-CRBN 64 nM
Chain of BRAF V600E, test compound and CRBN ternary complex (P15056 whole entry V600E): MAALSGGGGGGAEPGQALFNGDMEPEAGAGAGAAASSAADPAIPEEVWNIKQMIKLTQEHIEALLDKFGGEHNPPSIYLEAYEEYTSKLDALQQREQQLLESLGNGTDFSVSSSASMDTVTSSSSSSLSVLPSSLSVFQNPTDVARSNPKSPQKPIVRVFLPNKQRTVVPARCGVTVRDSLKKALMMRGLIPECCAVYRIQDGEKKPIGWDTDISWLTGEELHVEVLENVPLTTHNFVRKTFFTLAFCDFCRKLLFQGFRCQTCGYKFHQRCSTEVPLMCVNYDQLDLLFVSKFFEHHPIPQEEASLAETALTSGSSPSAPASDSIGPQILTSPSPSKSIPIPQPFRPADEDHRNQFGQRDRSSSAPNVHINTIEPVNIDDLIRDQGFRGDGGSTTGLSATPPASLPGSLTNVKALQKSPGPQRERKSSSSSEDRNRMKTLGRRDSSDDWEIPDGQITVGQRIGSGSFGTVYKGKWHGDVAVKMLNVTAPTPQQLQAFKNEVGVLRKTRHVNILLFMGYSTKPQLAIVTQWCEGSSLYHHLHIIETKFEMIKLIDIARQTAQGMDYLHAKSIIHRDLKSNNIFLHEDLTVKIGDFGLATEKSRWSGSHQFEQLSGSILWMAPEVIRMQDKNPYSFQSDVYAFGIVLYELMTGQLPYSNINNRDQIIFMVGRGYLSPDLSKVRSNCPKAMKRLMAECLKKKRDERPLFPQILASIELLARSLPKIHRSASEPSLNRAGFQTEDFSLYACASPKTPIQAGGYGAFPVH
Chain of BRAF V600E, test compound and CRBN ternary complex (Q96SW2 whole entry): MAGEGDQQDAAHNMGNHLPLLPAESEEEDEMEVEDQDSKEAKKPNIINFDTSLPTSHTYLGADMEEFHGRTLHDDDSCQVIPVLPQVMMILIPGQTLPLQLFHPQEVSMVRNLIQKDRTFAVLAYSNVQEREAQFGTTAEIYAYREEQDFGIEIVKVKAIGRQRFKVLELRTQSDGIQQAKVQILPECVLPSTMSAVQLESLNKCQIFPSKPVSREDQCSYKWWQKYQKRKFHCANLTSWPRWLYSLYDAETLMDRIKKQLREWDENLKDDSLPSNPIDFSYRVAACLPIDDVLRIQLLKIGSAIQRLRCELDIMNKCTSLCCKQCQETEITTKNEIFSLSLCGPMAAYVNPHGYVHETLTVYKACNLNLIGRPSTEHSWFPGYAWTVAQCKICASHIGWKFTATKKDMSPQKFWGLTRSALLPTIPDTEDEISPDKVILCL
Method: Formation of the ternary complex between BRAF V600E, test compound and CRBN was quantified using AlphaLISA® assay. GST-tagged BRAF V600E and His-tagged CRBN were labeled with a donor/acceptor AlphaLISA® pair, and complex formation was monitored via a change in the Alpha-signal. Signal from the control wells was used as a normalization control.
Characterization of the ternary complex formation between GST-BRAF V600E, Compound 157 and his-CRBN was carried out using an AlphaLISA® assay. Compounds were dispensed from serially diluted DMSO stock in low dead volume plates into gray 384-well AlphaPlates using acoustic technology to 1% of total reaction volume. Compounds were arranged vertically in rows A through P. Concentration series were horizontal: columns 1-11, and then duplicates in columns 12-22.
Excitation of the donor beads results in generation of singlet oxygen molecules. […]
A 10 μL mixture containing 16 nM of BRAF V600E and 64 nM of CRBN in 50 mM HEPES (pH 7.4), 200 mM NaCl, 1 mM TCEP, 0.05% Pluronic Acid, 0.1% BSA was added to the wells containing test compounds (columns 1-22) and the negative control wells (column 23). […] Plates were then read on an Envision plate reader with an appropriate AlphaLISA® filter set.

ERK phosphorylation [5] = assay: ERK phosphorylation (pERK) in A375 cells; assay type: cell-based
phospho-ERK (T202/Y204) [6] = assay: HTRF phospho-ERK (T202/Y204) inhibition assay in A375 cells; assay type: cell-based; conditions: Homo sapiens, A-375, 24 hrs, mean of at least n = 3, read-out: pERK IC50
Method: as §1, with “A375” for “A375-NRAS^Q61K cells”, “V600E” for “V600E mutation and NRAS homozygous Q61K”
as §2, with “A375” for “A375-NRAS^Q61K”, “8000” for “2000”, “well, respectively.” for “well.”

[7] = test system: A375 cells expressing the oncogenic NRAS^Q61K mutation; assay: Cellular growth over time of A375 cells expressing NRAS^Q61K; assay type: cell-based
A375 cells [8] = assay: Cellular confluence of A375 cells by live cell imaging; assay type: cell-based; conditions: end of the 7-day experiment
BRAF V600E = BRAF V600E (Homo sapiens, UniProt P15056, V600E); assay: Western blot of BRAF V600E levels in A375 cells; assay type: cell-based; design: host or cells: A375
Chain of BRAF V600E (P15056 whole entry V600E): as the sequence (P15056 whole entry V600E) above

LOXL4 = assay: Global proteomics profiling, A375 cells; assay type: cell-based, human; conditions: 300 nM, 24 hours
Method: Each cell line was treated in duplicate with either DMSO or Compound 157 (final concentration 300 nM) for 24 hours in an incubator at 37° C. with 5% CO2. After the 24-hour incubation, cells were harvested, washed twice with PBS, and snap frozen in liquid nitrogen. Samples were re-suspended in lysis buffer [8 M urea, 50 mM HEPES (pH 8.5), 50 mM NaCl, 1× protease inhibitor cocktail] and lysed by sonication at 4° C. with 85% amplitude in a pulse setting with 30 seconds on and 30 seconds off for a total sonication time of 5 minutes. Lysates were centrifuged at maximum speed for 10 minutes at 4° C. and the supernatant collected, reduced for 1 hour at room temperature with 5 mM TCEP, and the cysteine residues were then alkylated with 15 mM iodoacetamide (room temperature, in dark, 30 minutes). Protein content was extracted by methanol-chloroform precipitation and subsequent ice-cold acetone washes. Protein pellets were resuspended in 8 M urea, 50 mM HEPES (pH 8.5) buffer and protein concentrations were measured by BCA assay. […]
For peptide tandem mass tag (TMT) labeling, 100 μg of peptides per sample was prepared at […] concentration in 200 mM HEPES (pH 8.5), 30% acetonitrile (ACN) and each the specific TMT reagent. […] TMT reporter ion intensities were quantified by extracting the signal-to-noise ratio for each. […]

ERK phosphorylation [9] = assay: Western blot of ERK phosphorylation in A375 cells expressing NRAS^Q61K; assay type: cell-based; conditions: 24 hours
[10] = test system: A375 NRAS^Q61K mutant melanoma cell line xenograft; assay: In vivo efficacy in A375 NRAS^Q61K mutant melanoma xenograft; design: species or system BALBc/Nude mice; conditions: oral gavage, with MEKi trametinib 0.1 mg/kg BID

SMILES: CCN(C)S(=O)(=O)Nc1ccc(F)c(Oc2ccc3ncn([C@H]4COC5(CCN(C(=O)CC6(O)CCN(c7cc8c(cc7F)c(N7CCC(=O)N(C)C7=O)nn8C)CC6)CC5)C4)c(=O)c3c2)c1C#N [Compound 157^NMe, reference compound]
- IC50 (phospho-ERK (T202/Y204) [1]): 36.8 nM
- GI50 (A375-NRAS^Q61K cells): 794 nM
- cell growth inhibition [2]: not inhibited as significantly
- GI50 (A375 cells [3]): 22.5 nM
- Ternary complex formation (concentration dependence) [4]: no complex formation was observed
- ERK phosphorylation by western blot (ERK phosphorylation [5]): not as pronounced
- IC50 (phospho-ERK (T202/Y204) [6]): 13.5 nM
- cell growth inhibition [7]: not inhibited
- cellular confluence (A375 cells [8]): approximately 70%
- BRAF V600E levels (BRAF V600E): remain unchanged

SMILES: CC(C)(C)c1nc(-c2cccc(NS(=O)(=O)c3c(F)cccc3F)c2F)c(-c2ccnc(N)n2)s1 [dabrafenib, reference compound]
- LOXL4 protein level change (LOXL4): decreased on the dabrafenib treated samples, to a lesser extent

SMILES: COC(=O)N[C@@H](C)CNc1nccc(-c2cn(C(C)C)nc2-c2cc(Cl)cc(NS(C)(=O)=O)c2F)n1 [encorafenib, reference compound]
- IC50 (phospho-ERK (T202/Y204) [1]): 31 nM
- GI50 (A375-NRAS^Q61K cells): 911 nM
- cell growth inhibition [2]: no activity; also recorded: does not inhibit cell growth
- ERK phosphorylation, in combination with trametinib (ERK phosphorylation [9]; with 1 nM trametinib): unable to significantly suppress
- ERK phosphorylation, alone (ERK phosphorylation [9]; without trametinib): unable to significantly suppress
- tumor response, in combination with trametinib [10]: no activity
- GI50 (A375 cells [3]): 8 nM
- IC50 (phospho-ERK (T202/Y204) [6]): 2.1 nM
- cell growth inhibition [7]: does not inhibit cell growth
